{"source": "paper PMC11352258", "about": "“The Influence of Betulin and Its Derivatives on Selected Colorectal Cancer Cell Lines’ Viability and Their Antioxidant Systems” (Cells, 2024)", "key": {"Caco2 cells": {"tested_on": "Caco2 cells", "test": "MTT cytotoxicity assay, Caco2", "type": "cell-based", "conditions": "Homo sapiens, Caco-2, 24 h, read-out: IC50 value"}, "DLD-1 cells": {"tested_on": "DLD-1 cells", "test": "MTT cytotoxicity assay, DLD-1", "type": "cell-based", "conditions": "Homo sapiens, DLD-1, 24 h, read-out: IC50 value", "text": "(§1) Control cells were not treated with the compounds."}, "SW1116 cells": {"tested_on": "SW1116 cells", "test": "MTT cytotoxicity assay, SW1116", "conditions": "for IC50: Homo sapiens, SW 1116, 24 h, read-out: IC50 value", "experimental": "(§2) Six colorectal cancer cell lines, RKO, HT29, DLD-1, HCT116, Caco2 and SW1116 (CRL-2577, HTB-38, CCL-221, CCL-247, HTB-37, CCL-233; ATCC, Manassas, VA, USA, respectively, for CRC lines), and one normal cell line, CCD-841CoN (CRL-1790, ATCC, USA), were routinely cultured at 37 °C in a 5% CO2 incubator (Direct Heat CO2; Thermo Scientific, Waltham, MA, USA) in cell line-appropriate culture medium according to the manufacturer’s recommendations. Eagle’s minimum essential medium (EMEM) was used to culture RKO, Caco2 and CCD-841CoN lines, while McCoy’s 5A medium was used for HT29 and HCT116 lines. DLD-1 cells were grown in RPMI-1640 medium, whereas SW1116 cells were maintained in Leibovitz’s L-15 medium. All culture media were supplemented with 10% fetal bovine serum (EuroClone, Milan, Italy), and gentamycin at the concentration […] (BioWhittaker, Lonza, Basel, Switzerland) was also applied to prevent culture contamination.\n(§3) For this purpose, cells were exposed to the test compound for 24 h at concentrations of 0.1, 1, 10, 20, 50 and 100 μg/mL. Control cells were not treated with the compounds. MTT (0.25 mg/mL) was then added to the cultures and incubated for 3 h at 37 °C. After a time, the cells were washed with phosphate buffered saline (PBS), and next, formazan dye was dissolved in 100 μL of dimethyl sulfoxide (Sigma-Aldrich, St Louis, MO, USA). Absorbance was measured at 540 nm using a Wallac 1420 VICTOR microplate reader (PerkinElmer, Waltham, MA, USA)."}, "HCT116 cells": {"tested_on": "HCT116 cells", "test": "MTT cytotoxicity assay, HCT116", "type": "cell-based", "conditions": "Homo sapiens, HCT-116, 24 h, read-out: IC50 value", "text": "as §1"}, "[1]": {"tested_on": "colorectal cancer cell lines RKO, HT29, DLD-1, HCT116, Caco2 and SW1116", "test": "MTT cytotoxicity assay, statements over all tested cell lines", "experimental": "as §2, §3"}, "HT29 cells": {"tested_on": "HT29 cells", "test": "MTT cytotoxicity assay, HT29", "type": "cell-based", "conditions": "Homo sapiens, HT-29, 24 h, read-out: IC50 value", "text": "as §1"}, "RKO cells": {"tested_on": "RKO cells", "test": "MTT cytotoxicity assay, RKO", "conditions": "Homo sapiens, 24 h, read-out: IC50 value", "experimental": "as §2, §3"}, "CCD-841CoN cells": {"tested_on": "CCD-841CoN cells", "test": "cells", "type": "cell-based", "conditions": "Homo sapiens, CCD-841CoN, 24 h, read-out: IC50 value", "text": "as §1"}}, "note": "Values joined by “and” are separate entries in the source; they are usually repeats but may differ in a detail not shown here. Equal entries are not always repeated."}
{"smiles": "C#CC(=O)OC[C@]12CC[C@@H](/C(C)=C/P(=O)(OCC)OCC)C1C1CCC3[C@@]4(C)CC[C@H](O)C(C)(C)C4CC[C@@]3(C)[C@]1(C)CC2", "note": "(some centres unmarked) [ECH147, 29-diethoxyphosphoryl-28-propynylobetulin]", "values": [{"measurement": "IC50", "setting": "Caco2 cells", "value": "1.4 µg/mL and 2.43 µM"}, {"measurement": "IC50", "setting": "DLD-1 cells", "value": "0.69 µg/mL and 1.19 µM"}, {"measurement": "IC50", "setting": "SW1116 cells", "value": "5.21 µg/mL and 8.99 µM"}, {"measurement": "IC50", "setting": "HCT116 cells", "value": "3.24 µg/mL and 5.59 µM"}, {"measurement": "cytotoxic effect compared with the other tested compounds", "setting": "[1]; MTT, 24 h", "value": "strongest cytotoxic effect"}, {"measurement": "selectivity towards cancer cells", "setting": "[1]; cancer lines vs normal cells", "value": "does not show selectivity towards cancer cells"}, {"measurement": "change in cell viability", "setting": "[1]; each of the tested cell lines, concentrations higher than 1 µg/mL", "value": "significant decrease in cell viability"}, {"measurement": "IC50", "setting": "HT29 cells", "value": "0.63 µg/mL and 1.09 µM"}, {"measurement": "IC50", "setting": "RKO cells", "value": "1.18 µg/mL and 2.04 µM"}]}
{"smiles": "C=C(C)[C@@H]1CC[C@]2(COC(=O)c3cn(CP(=O)(OCC)OCC)nn3)CC[C@]3(C)C(CCC4[C@@]5(C)CC[C@H](O)C(C)(C)C5CC[C@]43C)C12", "note": "(some centres unmarked) [TR50]", "values": [{"measurement": "IC50", "setting": "Caco2 cells", "value": "13 µg/mL and 18.9 µM"}, {"measurement": "IC50", "setting": "DLD-1 cells", "value": "7.87 µg/mL and 11.4 µM"}, {"measurement": "IC50", "setting": "SW1116 cells", "value": "33.1 µg/mL and 48.1 µM"}, {"measurement": "sensitivity of cells to the compound", "setting": "SW1116 cells; SW1116, 10 µg/mL, in comparison with other CRC lines and normal colonocytes", "value": "lack of sensitivity"}, {"measurement": "IC50", "setting": "HCT116 cells", "value": "6.71 µg/mL and 9.76 µM"}, {"measurement": "IC50", "setting": "CCD-841CoN cells", "value": "18.3 µg/mL and 26.6 µM"}, {"measurement": "IC50", "setting": "HT29 cells", "value": "10.3 µg/mL and 14.9 µM"}, {"measurement": "IC50", "setting": "RKO cells", "value": "4.33 µg/mL and 6.29 µM"}]}
